A short description of series [1]: Phase II clinical trial of RO4588161: premature withdrawal for safety reasons. Conditions: among the 104 evaluable patients. The format is in vivo, human. The text has this:
A screening period (time from the first screening assessment to the first administration of test drug) of 35 days preceded the treatment portion of the trial (FIG. 1). The HCV genotype and HCV RNA titer of each patient was confirmed during the screening period and only treatment-naïve patients with HCV genotype-1 and HCV RNA titer ≧50,000 IU/mL were eligible for enrollment.
One hundred and seven male and female patients between 18 and 66 years of age were enrolled into the study.

The subject of the next series is HCV. As to conditions: monotherapy; cited from earlier work.

With `CC(C)C(=O)OC[C@@]1(N=[N+]=[N-])O[C@@H](n2ccc(N)nc2=O)[C@H](OC(=O)C(C)C)[C@@H]1OC(=O)C(C)C` [RO4588161, Isobutyric acid (2R,3S,4R,5R)-5-(4-amino-2-oxo-2H-pyrimidin-1-yl)-2-azido-3,4-bis-isobutyryloxy-tetrahydro-furan-2-ylmethyl ester], in series [1], the “patients who prematurely withdrew for safety reasons from treatment” value is on record as 43 patients.

In the case of `NC(=O)c1ncn([C@@H]2O[C@H](CO)[C@@H](O)[C@H]2O)n1` [ribavirin, 1-((2R,3R,4S,5R)-3,4-Dihydroxy-5-hydroxymethyl-tetrahydro-furan-2-yl)-1H-[1,2,4]triazole-3-carboxylic acid amide], the “patients who prematurely withdrew for safety reasons from treatment” value in series [1] was 5 patients. In addition, in the series with HCV, the “effect on serum levels of HCV-RNA” value is on record as “does not lower serum levels of HCV-RNA” and the “patients with serum amino transferase levels reduced to normal” value is recorded as 40%.

The record behind these values is patent US20110312513A1, “BIOMARKERS FOR PREDICTING SUSTAINED RESPONSE TO HCV TREATMENT” (ROCHE MOLECULAR SYSTEMS, INC., priority 2009, published 2011).
